The values below come from ChEMBL document CHEMBL1201862, “PubChem BioAssay data set” (2004).

Common to all, as to experiment: NCI-60 cell line screen, 48 h
For assay [1], the system named is MDA-MB-231.
Assay [2] relates to HCT-15.
Assay [3] concerns OVCAR-8.
Assay [4] relates to SW-620.
In assay [5] the test system is PC-3.
For assay [6], the system named is M14.
The test system of assay [7] is SR.
The test system of assay [8] is MDA-N.
The subject of assay [9] is SK-MEL-28.
Assay [10] has as its system IGROV-1.
Assay [11] has as its system DU-145.
Assay [12] concerns KM12.
Assay [13] deals with ACHN.
Assay [14] relates to DMS-114.
For assay [15], the system named is SNB-78.
The test system of assay [16] is HCT-116.
Assay [17] relates to HOP-18.
In assay [18] the test system is KM-20L2.
For assay [19], the system named is M19-MEL.
Assay [20] relates to XF498.

The structures appear in SMILES notation.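 48-hour exposure; five concentrations; linearly interpolated endpoints. The concentration for 50% growth inhibition is given as GI50.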 Activity calls are given as the source filed them. Rule as the data show it: active = GI50 up to about 1.1 µM and inactive = higher.

`Fc1ccc(C(OCCN2CCN(CCCc3ccccc3)CC2)c2ccc(F)cc2)cc1`: the GI50 was 3.15 µM (inactive) in assay [1]; 3.45 µM in assay [2]; 3.92 µM (inactive) in assay [3]; 5.47 µM (inactive) in assay [4]; 3.44 µM (inactive) in [5]; 3.12 µM (inactive) in [6]. Further, the GI50 in assay [7] was 2.71 µM (inactive); in assay [8] it was 4.06 µM (inactive); in assay [9], 9.73 µM (inactive); in [10] it was 10.4 µM (inactive); in assay [11], 5.97 µM (inactive); in [12] it was 4.19 µM (inactive). For the same compound, the GI50 in assay [13] is 5.82 µM (inactive).

Regarding `O=C(CC1=NCCN1)c1ccccc1`, the GI50 in [14] is > 750 µM (inactive); in [15], > 750 µM (inactive); in assay [2] it was greater than 750 µM; in assay [3], > 750 µM (inactive); in [16], > 750 µM (inactive); in assay [4] it was > 750 µM (inactive). The GI50 in [17] was > 649 µM (inactive); in assay [18], > 750 µM (inactive); in assay [19] it was > 750 µM (inactive); in assay [9] it was > 750 µM (inactive); in assay [20], > 750 µM (inactive); in assay [10], > 750 µM (inactive). Further, the GI50 in assay [12] is > 750 µM (inactive).

For `CC(C)(C)OC(=O)NC(Cc1ccccc1)C(=O)N[C@H]1c2ccsc2/C(=N/O)[C@H]1O` (stereo not given in full), the GI50 in [1] was > 100 µM (inactive); in assay [2], greater than 100 µM; in assay [3] it was > 100 µM (inactive); in assay [16], > 100 µM (inactive); in assay [4] it was > 100 µM (inactive); in assay [5] it was > 100 µM (inactive). The GI50 in assay [6], in [7], in assay [8], in assay [10] and in assay [11] was > 100 µM (inactive) throughout.

For the compound `COc1ccc(/C(Cl)=C(\C=O)c2ccc(OC)c(OC)c2)cc1`, the GI50 in assay [14] was 25.9 µM (inactive); in [15], 29 µM (inactive); in assay [2], 52.1 µM; in [3], 65.6 µM (inactive); in assay [4] it was > 100 µM (inactive); in [17], 49.9 µM (inactive). Moreover, the GI50 in assay [18] is > 100 µM (inactive); in [6] it was > 100 µM (inactive); in [19], > 100 µM (inactive); in [9] it was > 100 µM (inactive); in assay [20], 22.2 µM (inactive); in [10], 46.1 µM (inactive). In addition, the GI50 in assay [13] is 35.3 µM (inactive).
